# Data taken from PMC4697807, “Novel Zn^2+ Modulated GPR39 Receptor Agonists Do Not Drive Acute Insulin Secretion in Rodents” (PLoS ONE, 2015).
# System: DIO mice
# Test: IPGTT in DIO mice
# Assay type: in vivo, mouse
# Settings: 100 mg/kg group, IP; group terminated
# Description: Six-week-old male C57BL/6J mice were purchased from CLEA (Tokyo, Japan). Fourteen-week-old and fifteen-week-old male DIO mice were purchase from Charles River Japan (Yokohama, Japan). They were used after at least one week acclimation period. C57BL/6J mice were allowed free access to a normal diet (CRF-1, Oriental Yeast, Tokyo, Japan). DIO mice were allowed free access to a high-fat diet with 60 kcal% fat (D12492, Research Diets, New Brunswick, NJ). They were kept under standard 12-h light/dark cycle. Animal experiments were approved by the Institutional Animal Care and Use Committee of Mitsubishi Tanabe Pharma Corporation.
# Fifteen-week-old and twenty one-week-old DIO mice were used. The mice were fasted for 3 h and were randomly grouped based on the body weight. Five ml/kg of a solution of vehicle (10% DMF/18% Cremophore) or compounds were administered IP. Thirty min later, 1.0 g/10 ml/kg of glucose solution was administered IP. Blood samples were obtained from the tail vein at -30, 0, 15, 30, 60, and 120 min after glucose challenge. Plasma glucose and insulin were measured.
# Statistical analysis was performed using SAS9.1.3 with student’s t-test or Dunnett’s test. All data were expressed as mean ± standard error of mean (SEM). P values of <0.05 were considered to be statistically significant.
smiles,measurement,value
"N#Cc1ccc(OCCn2ccnc2)c(OCCn2ccnc2)c1 [AZ1395, 3,4-bis-(2-imidazol-1-ylethoxy)-benzonitrile]",adverse findings,severe hyperglycemia and associated morbidity/mortality in some animals
